Active and inactive are the calls of the source.
Experiments:
[1] = molecular target: T1, Dual specificity protein phosphatase 3 (Homo sapiens, UniProt P51452); assay: SAR VHR1 Fluorescent Assay for In Vitro dose response studies Set 3. [Related pubchem assays (depositor defined):AID1654, AID1661, AID1878]; format: functional
[2] = molecular target: Polyadenylate-binding protein 1 (Homo sapiens, UniProt P11940); assay: PABP poly(A) RNA binding inhibitors, primary screen, biochemical, fluorescence polarization, uHTS (AID 2014)
[3] = molecular target: Eukaryotic translation initiation factor 4H (Homo sapiens, UniProt Q15056); assay: human eIF4H binding inhibitors, primary screen, translation initiation inhibitor project, biochemical, uHTS, fluorescence polarization (AID 2012)
Insulin-degrading enzyme = molecular target: T2, Insulin-degrading enzyme (Homo sapiens, UniProt P14735); assay: Dose Response: Fluorescence polarization-based cell-based high throughput dose response assay for inhibitors of insulin-degrading enzyme (IDE). [Related pubchem assays: 434962 (Primary screen (IDE inhibitors in singlicate)), 449730 (Counterscreen (Cytotoxicity in triplicate)), 435028 (Confirmation (IDE inhibitors in triplicate)), 434984 (Summary …; format: functional
T2 sequence (P14735 whole entry): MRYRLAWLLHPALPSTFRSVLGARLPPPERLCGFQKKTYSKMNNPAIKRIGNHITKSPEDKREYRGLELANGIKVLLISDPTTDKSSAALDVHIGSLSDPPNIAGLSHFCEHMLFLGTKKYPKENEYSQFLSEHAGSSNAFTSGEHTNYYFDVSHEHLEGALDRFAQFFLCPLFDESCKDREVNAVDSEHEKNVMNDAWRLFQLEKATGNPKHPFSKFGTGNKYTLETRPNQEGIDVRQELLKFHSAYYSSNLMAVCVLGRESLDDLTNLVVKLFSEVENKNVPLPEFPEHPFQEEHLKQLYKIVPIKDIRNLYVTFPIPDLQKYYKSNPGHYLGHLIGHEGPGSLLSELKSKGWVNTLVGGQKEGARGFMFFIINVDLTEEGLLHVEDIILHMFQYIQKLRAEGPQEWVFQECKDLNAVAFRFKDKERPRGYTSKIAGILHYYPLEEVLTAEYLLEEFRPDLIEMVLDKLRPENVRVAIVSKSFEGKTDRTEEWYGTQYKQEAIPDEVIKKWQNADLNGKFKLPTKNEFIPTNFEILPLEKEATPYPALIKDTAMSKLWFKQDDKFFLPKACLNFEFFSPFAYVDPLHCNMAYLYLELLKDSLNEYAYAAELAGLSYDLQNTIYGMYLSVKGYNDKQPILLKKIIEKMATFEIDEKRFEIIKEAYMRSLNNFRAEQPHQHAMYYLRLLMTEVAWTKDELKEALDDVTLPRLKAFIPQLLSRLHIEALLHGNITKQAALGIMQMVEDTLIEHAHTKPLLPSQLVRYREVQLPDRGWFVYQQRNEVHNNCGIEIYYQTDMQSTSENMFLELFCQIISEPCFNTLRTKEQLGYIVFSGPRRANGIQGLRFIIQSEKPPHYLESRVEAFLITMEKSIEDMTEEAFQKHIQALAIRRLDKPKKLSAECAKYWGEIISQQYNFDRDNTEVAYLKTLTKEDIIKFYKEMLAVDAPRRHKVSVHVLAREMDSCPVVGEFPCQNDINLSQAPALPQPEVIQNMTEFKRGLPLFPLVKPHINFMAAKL

[4] = molecular target: T1, Dual specificity protein phosphatase 3; assay: Dose Response Confirmation of compounds that inhibit VHR1 in Fluorescent Assay. [Related pubchem assays (depositor defined):AID1661, AID1878]; format: functional
[5] = Counterscreen for IDE inhibitors: Luminescence-based cell-based high throughput dose response assay to identify compounds that are cytotoxic to HEK cells. [Related pubchem assays: 434962 (Primary screen (IDE inhibitors in singlicate)), 449730 (Counterscreen (Cytotoxicity in triplicate)), 435028 (Confirmation (IDE inhibitors in triplicate)) …; format: functional; conditions: HEK293
fMet-Leu-Phe receptor = molecular target: T3, fMet-Leu-Phe receptor (Homo sapiens, UniProt P21462); assay: FPR ligands, dose response (AID 519); format: functional
T3 sequence (P21462 whole entry): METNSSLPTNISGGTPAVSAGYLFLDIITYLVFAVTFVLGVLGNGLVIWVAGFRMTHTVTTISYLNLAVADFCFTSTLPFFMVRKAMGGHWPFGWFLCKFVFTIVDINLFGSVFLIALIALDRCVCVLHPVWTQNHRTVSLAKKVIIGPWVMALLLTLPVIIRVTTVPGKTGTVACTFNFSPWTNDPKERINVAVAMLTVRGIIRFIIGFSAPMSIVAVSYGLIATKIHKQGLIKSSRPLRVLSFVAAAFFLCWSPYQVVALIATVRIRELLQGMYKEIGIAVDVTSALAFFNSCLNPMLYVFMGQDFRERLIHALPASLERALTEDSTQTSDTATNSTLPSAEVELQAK

[6] = molecular target: T4, Heat shock 70 kDa protein 1A (Homo sapiens, UniProt P0DMV8); assay: Hsp70 inhibitors, biochemical, TR-FRET (AID 786)
[7] = molecular target: T5, Tyrosine-protein phosphatase non-receptor type 7 (Homo sapiens, UniProt P35236); assay: Dose Response confirmation of compounds that inhibit HePTP. [Related pubchem assays (depositor defined):AID1059, AID1661, AID2085]; format: functional
T5 sequence (P35236 whole entry): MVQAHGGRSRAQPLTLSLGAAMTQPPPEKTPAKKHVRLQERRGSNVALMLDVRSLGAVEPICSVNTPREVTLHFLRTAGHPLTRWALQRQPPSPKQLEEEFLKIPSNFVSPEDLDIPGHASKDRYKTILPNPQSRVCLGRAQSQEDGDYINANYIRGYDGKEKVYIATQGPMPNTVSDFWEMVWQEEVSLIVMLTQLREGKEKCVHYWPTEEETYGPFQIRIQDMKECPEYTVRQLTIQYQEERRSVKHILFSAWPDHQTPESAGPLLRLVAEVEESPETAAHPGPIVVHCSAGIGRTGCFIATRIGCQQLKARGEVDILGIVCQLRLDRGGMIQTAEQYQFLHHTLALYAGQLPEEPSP

[8] = molecular target: T4, Heat shock 70 kDa protein 1A; assay: Hsp70 inhibitors, probe displacement, primary screen, biochemical, fluorescence polarization (AID 583)
[9] = molecular target: Protein-tyrosine kinase 2-beta (Homo sapiens, UniProt Q14289);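 further: potency of inhibitors of PYK2 kinase phosphorylation of poly-GT substrate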
[10] = inhibitors of HIV Env-driven cell fusion, dose response, cherry-pick (AID 652057); format: functional, cell-based
[11] = CEM21 lymphoblast cell cytotoxicity, dose response, cytotoxicity control for viral fusion inhibitor project, CellTiter-Glo luminescence, cherry-picked (AID 652042); format: functional, cell-based;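 further: potency for signal decrease meaning cytotoxicity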
Vero [12] = assay: cells; format: functional; conditions: Chlorocebus sabaeus
[13] = HEp-2 cell cytotoxicity, dose response, cytotoxicity control for RSV inhibitor project, HTS (AID 2410); format: functional; conditions: human respiratory syncytial virus
Vero [14] = assay: cells; format: functional, cell-based; conditions: Chlorocebus sabaeus
HEK293 [15] = assay: cells; conditions: Homo sapiens
HEK293 [16] = assay: cells; conditions: Homo sapiens; remark: listed apart in the source

T1 sequence (P51452 whole entry): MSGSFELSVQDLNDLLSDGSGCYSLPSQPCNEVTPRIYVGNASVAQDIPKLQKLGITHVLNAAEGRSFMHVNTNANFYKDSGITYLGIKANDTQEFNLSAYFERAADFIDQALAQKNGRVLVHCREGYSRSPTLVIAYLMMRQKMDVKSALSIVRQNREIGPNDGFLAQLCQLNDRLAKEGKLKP
T4 sequence (P0DMV8 whole entry): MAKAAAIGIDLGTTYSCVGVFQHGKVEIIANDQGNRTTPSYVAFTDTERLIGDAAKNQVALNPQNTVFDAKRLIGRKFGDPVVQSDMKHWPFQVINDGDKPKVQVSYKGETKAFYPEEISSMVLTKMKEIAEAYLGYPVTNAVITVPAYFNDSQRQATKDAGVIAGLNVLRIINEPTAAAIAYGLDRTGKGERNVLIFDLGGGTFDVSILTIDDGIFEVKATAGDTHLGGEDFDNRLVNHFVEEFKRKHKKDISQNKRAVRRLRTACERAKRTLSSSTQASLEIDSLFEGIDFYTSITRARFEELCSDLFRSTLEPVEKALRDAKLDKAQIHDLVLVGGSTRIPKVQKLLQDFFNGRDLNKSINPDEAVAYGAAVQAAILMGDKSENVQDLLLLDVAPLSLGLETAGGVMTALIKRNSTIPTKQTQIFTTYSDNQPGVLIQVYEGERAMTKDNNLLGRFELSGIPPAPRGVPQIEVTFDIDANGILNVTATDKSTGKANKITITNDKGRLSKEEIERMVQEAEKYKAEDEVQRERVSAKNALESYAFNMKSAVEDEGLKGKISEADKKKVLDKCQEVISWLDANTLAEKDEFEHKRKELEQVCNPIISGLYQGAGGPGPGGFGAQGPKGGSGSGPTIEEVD
Chain of Polyadenylate-binding protein 1 (P11940 whole entry): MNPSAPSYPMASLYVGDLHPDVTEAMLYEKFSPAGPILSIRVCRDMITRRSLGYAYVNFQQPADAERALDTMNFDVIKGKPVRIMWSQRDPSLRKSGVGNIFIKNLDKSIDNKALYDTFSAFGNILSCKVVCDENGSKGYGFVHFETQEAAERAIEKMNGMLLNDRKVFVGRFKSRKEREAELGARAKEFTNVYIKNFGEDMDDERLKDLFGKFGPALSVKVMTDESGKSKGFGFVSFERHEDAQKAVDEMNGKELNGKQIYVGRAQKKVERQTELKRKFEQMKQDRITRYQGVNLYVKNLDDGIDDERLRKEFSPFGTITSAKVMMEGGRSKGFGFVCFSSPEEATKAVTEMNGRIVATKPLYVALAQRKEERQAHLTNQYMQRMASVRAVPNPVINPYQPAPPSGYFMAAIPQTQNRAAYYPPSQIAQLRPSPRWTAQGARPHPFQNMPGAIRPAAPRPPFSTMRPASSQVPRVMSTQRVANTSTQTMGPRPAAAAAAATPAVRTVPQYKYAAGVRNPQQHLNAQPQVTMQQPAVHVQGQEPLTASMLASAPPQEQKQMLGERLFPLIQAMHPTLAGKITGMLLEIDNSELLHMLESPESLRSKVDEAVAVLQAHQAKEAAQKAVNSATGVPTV
Chain of Protein-tyrosine kinase 2-beta (Q14289 whole entry, the tested form may be a part): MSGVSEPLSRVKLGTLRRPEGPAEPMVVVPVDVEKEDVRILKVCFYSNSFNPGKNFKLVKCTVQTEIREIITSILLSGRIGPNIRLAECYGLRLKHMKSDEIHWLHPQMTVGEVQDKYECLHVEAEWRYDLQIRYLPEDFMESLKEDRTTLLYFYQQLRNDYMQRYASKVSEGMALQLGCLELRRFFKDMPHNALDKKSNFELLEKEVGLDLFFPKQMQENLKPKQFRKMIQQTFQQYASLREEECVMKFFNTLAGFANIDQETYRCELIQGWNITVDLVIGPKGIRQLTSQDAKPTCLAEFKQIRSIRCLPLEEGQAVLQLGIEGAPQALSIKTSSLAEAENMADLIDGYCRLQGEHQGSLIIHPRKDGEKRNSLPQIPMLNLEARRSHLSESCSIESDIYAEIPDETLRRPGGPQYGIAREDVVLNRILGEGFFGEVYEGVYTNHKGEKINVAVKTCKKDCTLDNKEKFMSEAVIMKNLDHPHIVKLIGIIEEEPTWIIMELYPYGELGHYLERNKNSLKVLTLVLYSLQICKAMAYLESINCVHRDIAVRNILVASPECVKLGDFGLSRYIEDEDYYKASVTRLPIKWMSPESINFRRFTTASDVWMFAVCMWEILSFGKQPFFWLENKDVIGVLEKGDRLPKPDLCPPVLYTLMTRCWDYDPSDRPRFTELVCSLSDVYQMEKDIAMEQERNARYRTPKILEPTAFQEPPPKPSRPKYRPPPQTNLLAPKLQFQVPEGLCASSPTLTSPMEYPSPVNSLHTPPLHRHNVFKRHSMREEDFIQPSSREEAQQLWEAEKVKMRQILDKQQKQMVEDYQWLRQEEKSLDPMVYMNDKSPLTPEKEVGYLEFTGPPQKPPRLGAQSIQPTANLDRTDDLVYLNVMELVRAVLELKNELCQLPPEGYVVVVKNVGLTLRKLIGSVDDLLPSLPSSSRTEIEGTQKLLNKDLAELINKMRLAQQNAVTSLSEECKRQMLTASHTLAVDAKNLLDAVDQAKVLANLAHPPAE

COc1ccc(-c2nnc(Nc3nc4c(OC)cccc4s3)o2)cc1
IC50 [1]: 3.61 µM (active)
IC50 [2]: > 100 µM (inactive)
IC50 [3]: 12.5 µM (active)
IC50 (Insulin-degrading enzyme): > 55.9 µM (not active)
IC50 [4]: 1.78 µM (active)
IC50 [5]: 17.1 µM (not active)
Ki (fMet-Leu-Phe receptor): > 66.7 µM (inactive)
IC50 [6]: > 100 µM (not active)
IC50 [7]: 6.08 µM (active)
IC50 [8]: > 100 µM (not active)
IC50 [9]: 9.06 µM (active)
AC50 [10]: 5.28 µM (active)
AC50 [11]: 52.2 µM (active)

CC1Cc2ccccc2N1S(=O)(=O)c1cccc(C(=O)N2CCN(c3ncccn3)CC2)c1 (centres undefined)
IC50 (cells): 1.01 µM (active)
CC50 (Vero [12]): > 25 µM (active)
CC50 [13]: 3.41 µM (active)
IC50 (Vero [14]): 2.15 µM (active)

Cc1nn2c(nc(N3CCCCC3)c3ccccc32)c1C=O
EC50 (HEK293 [15]): > 59.7 µM (inactive)
EC50 (HEK293 [16]): > 59.7 µM (inactive)

Source: ChEMBL document CHEMBL1201862, “PubChem BioAssay data set” (2004)
